The values that follow come from patent US8946438B2, “Benzamides, production thereof, and use thereof as medicaments” (Boehringer Ingelheim International GmbH, priority 2008, dated 2015).

p38 MAP-kinase, sequence (Q16539 whole entry): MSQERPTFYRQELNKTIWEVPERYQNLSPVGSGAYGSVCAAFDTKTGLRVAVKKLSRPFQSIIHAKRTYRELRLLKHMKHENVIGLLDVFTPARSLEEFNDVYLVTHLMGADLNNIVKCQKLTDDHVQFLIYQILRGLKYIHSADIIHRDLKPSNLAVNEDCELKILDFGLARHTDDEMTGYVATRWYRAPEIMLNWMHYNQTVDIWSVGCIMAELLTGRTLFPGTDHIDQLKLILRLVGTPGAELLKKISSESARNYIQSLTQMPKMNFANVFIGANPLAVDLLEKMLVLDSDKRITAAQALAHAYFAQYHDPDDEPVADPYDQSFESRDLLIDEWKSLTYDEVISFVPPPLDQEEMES

In the experiment the target is p38 MAP-kinase (Homo sapiens, UniProt Q16539). The experiment can be described thus: Enzymatic assay: inhibition of p38 MAP-kinase (phosphorylation of GST-tagged ATF2, chemoluminescence bead readout). It is filed as biochemical. To be noted: inhibitor 1 μM; activated p38 MAP-kinase 1 nM; 4 h preincubation; ATP 100 μM; ATF2 10 nM; read-out: % inhibitory effect at 1 μM. As for the experimental part: In this, the amount of a substrate phosphorylated by the kinase is quantified. The test is carried out as follows:
The kinase reaction is carried out in the presence of HEPES (20 mM, pH 7), MgCl2 (10 mM), DTT (1 mM) and TWEEN20 (0.01%). First, dimethylsulphoxide or inhibitor (final concentration: 1 μM) dissolved in dimethylsulphoxide are placed in a reaction vessel. Then the activated p38 MAP-kinase (final concentration 1 nM) is added and the mixture is incubated for 4 h at ambient temperature. Then a mixture of substrate (GST-tagged ATF2) and ATP is added and everything is incubated together for a further hour (final concentration ATP: 100 μM; final concentration ATF2: 10 nM).
The concentration of phosphorylated ATF2 is quantified by chemoluminescence-induced light emission. For this, a glutathione donor bead (final concentration: 5 μg/ml) which binds to the gluthathione on the ATF2 and phospho-ATF2 antibodies are added to the reaction mixture (final concentration: 3 nM; this binds the phosphate group added by the kinase reaction) to which a Protein A Acceptor Bead (final concentration: 5 μg/ml) binds. These components are dissolved in a buffer which contains 20 mM HEPES pH 7.0, 200 mM NaCL, 80 mM EDTA as well as 0.3% BSA. This reaction mixture is incubated in the dark for 1 hour at ambient temperature. When these beads come physically close, visible light is emitted which is measured in a photometer at 520-620 nm.
To determine the inhibitory activity of the compounds according to the invention a calculation is made to determine the percentage by which the kinase activity is inhibited at a fixed inhibitor concentration of 1 μM. The maximum activity is determined by non-inhibited kinase. The minimum activity or nonspecific background activity is determined using a reaction mixture without kinase. […] Table 2 summarises the degree of inhibition of the enzyme p38 MAP-kinase—as described hereinbefore—of the compounds according to the invention detailed in the section “Preparation of the final compounds”.
Take `COc1c(NC(=O)c2ccc(C)c(Oc3cc(C(=O)N4CCNCC4)ncn3)c2)cc(C(C)(C)C)cc1NS(C)(=O)=O` [5(2), N-(5-tert-butyl-3-methanesulphonylamino-2-methoxy-phenyl)-4-methyl-3-[6-(piperazine-1-carbonyl)-pyrimidin-4-yloxy]-benzamide x trifluoroacetic acid]: the inhibition at 1 µM is 93.2%.

With `CCCCC(=O)Nc1cc(C(C)(C)C)cc(NC(=O)c2ccc(C)c(Oc3ccnc(CC4CCNCC4)c3)c2)c1OC` [11(2), N-(5-tert-butyl-2-methoxy-3-pentanoylamino-phenyl)-4-methyl-3-(2-piperidin-4-ylmethyl-pyridin-4-yloxy)-benzamide], the inhibition at 1 µM was determined as 95.4%.

As to `COc1c(NC(=O)c2ccc(C)c(Oc3ccnc(NC4CCNCC4)n3)c2)cc(C(C)(C)C)cc1NS(C)(=O)=O` [5(16), N-(5-tert-butyl-3-methanesulphonylamino-2-methoxy-phenyl)-4-methyl-3-[2-(piperidin-4-ylamino)-pyrimidin-4-yloxy]-benzamide], the inhibition at 1 µM was 98.9%.

Regarding `COc1c(NC(=O)c2ccc(F)c(Oc3ccnc(N4CCNCC4)n3)c2)cc(C(C)(C)C)cc1NS(C)(=O)=O` [5(10), N-(5-tert-butyl-3-methanesulphonylamino-2-methoxy-phenyl)-4-fluoro-3-(2-piperazin-1-yl-pyrimidin-4-yloxy)-benzamide x trifluoroacetic acid], the inhibition at 1 µM stood at 94.6%.

On to `COc1c(NC(=O)c2ccc(C)c(Oc3cc(N(C)C4CCN(C)C4)ncn3)c2)cc(C(C)(C)C)cc1NS(C)(=O)=O` (centres unmarked) [4(20), N-(5-tert-butyl-3-methanesulphonylamino-2-methoxy-phenyl)-4-methyl-3-{6-[methyl-(1-methyl-pyrrolidin-3-yl)-amino]-pyrimidin-4-yloxy}-benzamide], for which the inhibition at 1 µM came out at 95.6%.

With `COc1c(NC(=O)c2ccc(C)c(Oc3cc(NCCO)ncn3)c2)cc(C(C)(C)C)cc1NS(C)(=O)=O` [4(1), N-(5-tert-butyl-3-methanesulphonylamino-2-methoxy-phenyl)-3-[6-(2-hydroxy-ethylamino)-pyrimidin-4-yloxy]-4-methyl-benzamide], the inhibition at 1 µM came out at 96.8%.

In the case of `COc1c(NC(=O)c2ccc(C)c(Oc3cc(CN4CCN(C)CC4)ncn3)c2)cc(C(C)(C)C)cc1NS(C)(=O)=O` [8(2), N-(5-tert-butyl-3-methanesulphonylamino-2-methoxy-phenyl)-4-methyl-3-[6-(4-methyl-piperazin-1-ylmethyl)-pyrimidin-4-yloxy]-benzamide], the inhibition at 1 µM turned out to be 98.7%.

As for `Cc1ccc(C(=O)Nc2cc(C(C)(C)C)cc(NS(C)(=O)=O)c2OC(C)C)cc1Oc1ccnc(CC2CCNCC2)c1` [5(44), N-(5-tert-butyl-2-isopropoxy-3-methanesulphonylamino-phenyl)-4-methyl-3-(2-piperidin-4-ylmethyl-pyridin-4-yloxy)-benzamide], the inhibition at 1 µM amounted to 93.2%.

Take `COc1c(NC(=O)c2ccc(C)c(Oc3ccnc(N(C)C4CCN(C)CC4)n3)c2)cc(C(C)(C)C)cc1NS(C)(=O)=O` [4(16), N-(5-tert-butyl-3-methanesulphonylamino-2-methoxy-phenyl)-4-methyl-3-{2-[methyl-(1-methyl-piperidin-4-yl)-amino]-pyrimidin-4-yloxy}-benzamide]: the inhibition at 1 µM was found to be 99.4%.

For the molecule `COc1c(NC(=O)c2ccc(Cl)c(Oc3ccnc(CN4CCN(C)CC4)c3)c2)cc(C(C)(C)C)cc1NS(C)(=O)=O` [12(4), N-(5-tert-butyl-3-methanesulphonylamino-2-methoxy-phenyl)-4-chloro-3-[2-(4-methyl-piperazin-1-ylmethyl)-pyridin-4-yloxy]-benzamide], the inhibition at 1 µM amounted to 99.3%.

On to `COc1c(NC(=O)c2ccc(C)c(Oc3cc(C(=O)N4CCN(C)CC4)ncn3)c2)cc(C(C)(C)C)cc1NS(C)(=O)=O` [7(2), N-(5-tert-butyl-3-methanesulphonylamino-2-methoxy-phenyl)-4-methyl-3-[6-(4-methyl-piperazine-1-carbonyl)-pyrimidin-4-yloxy]-benzamide], for which the inhibition at 1 µM was 96.3%.

As for `COc1c(C[S+](C)[O-])cc(C(C)(C)C)cc1NC(=O)c1ccc(C)c(Oc2ccnc(CC3CCNCC3)c2)c1` (centres unmarked) [5(42), N-(5-tert-butyl-2-methoxy-3-methylsulphinylmethyl-phenyl)-4-methyl-3-(2-piperidin-4-ylmethyl-pyridin-4-yloxy)-benzamide], the inhibition at 1 µM was found to be 99.5%.

With `COc1c(NC(=O)c2ccc(C)c(Oc3ccnc(CN(C)CCN(C)C)c3)c2)cc(C(C)(C)C)cc1NS(C)(=O)=O` [8(26), N-(5-tert-butyl-3-methanesulphonylamino-2-methoxy-phenyl)-3-(2-{[(2-dimethylamino-ethyl)-methyl-amino]-methyl}-pyridin-4-yloxy)-4-methyl-benzamide], the inhibition at 1 µM amounted to 97.7%.

In the case of `COc1c(NC(=O)c2ccc(C)c(Oc3cc(NC4CCN(C)CC4)ncn3)c2)cc(C(C)(C)C)cc1NS(C)(=O)=O` [4(10), N-(5-tert-butyl-3-methanesulphonylamino-2-methoxy-phenyl)-4-methyl-3-[6-(1-methyl-piperidin-4-ylamino)-pyrimidin-4-yloxy]-benzamide], the inhibition at 1 µM was determined as 100%.

Consider `COc1c(NC(=O)c2ccc(C)c(Oc3cc[n+]([O-])cc3)c2)cc(C(C)(C)C)cc1NS(C)(=O)=O` [Example 1, N-(5-tert-butyl-3-methanesulphonylamino-2-methoxy-phenyl)-4-methyl-3-(1-oxy-pyridin-4-yloxy)-benzamide], for which the inhibition at 1 µM came out at 90.8%.

On to `COc1c(NC(=O)c2ccc(C)c(Oc3ccnc(CC4CCNCC4)c3)c2)cc(C(C)(C)C)cc1NS(=O)(=O)C(C)C` [5(50), N-[5-tert-butyl-2-methoxy-3-(propane-2-sulphonylamino)-phenyl]-4-methyl-3-(2-piperidin-4-ylmethyl-pyridin-4-yloxy)-benzamide], for which the inhibition at 1 µM was 99.6%.

For `COc1c(NC(=O)c2ccc(C)c(Oc3ccnc(CN4CC[C@H](O)C4)c3)c2)cc(C(C)(C)C)cc1NS(C)(=O)=O` [8(13), (S)-N-(5-tert-butyl-3-methanesulphonylamino-2-methoxy-phenyl)-3-[2-(3-hydroxy-pyrrolidin-1-ylmethyl)-pyridin-4-yloxy]-4-methyl-benzamide], the inhibition at 1 µM was determined as 96.8%.

On to `COc1c(NC(=O)c2ccc(Cl)c(Oc3ccnc(CNCCN(C)C)n3)c2)cc(C(C)(C)C)cc1NS(C)(=O)=O` [8(37), N-(5-tert-butyl-3-methanesulphonylamino-2-methoxy-phenyl)-4-chloro-3-{2-[(2-dimethylamino-ethylamino)-methyl]-pyrimidin-4-yloxy}-benzamide], for which the inhibition at 1 µM is 91.3%.

For the molecule `COc1c(NC(=O)c2ccc(Cl)c(Oc3ccnc(CC4CCN(C)CC4)n3)c2)cc(C(C)(C)C)cc1NS(C)(=O)=O` [12(3), N-(5-tert-butyl-3-methanesulphonylamino-2-methoxy-phenyl)-4-chloro-3-[2-(1-methyl-piperidin-4-ylmethyl)-pyrimidin-4-yloxy]-benzamide], the inhibition at 1 µM is 99.6%.

Regarding `COc1c(NC(=O)c2ccc(C)c(Oc3ccnc(CNCCN(C)C)n3)c2)cc(C(C)(C)C)cc1NS(C)(=O)=O` [8(25), N-(5-tert-butyl-3-methanesulphonylamino-2-methoxy-phenyl)-3-{2-[(2-dimethylamino-ethylamino)-methyl]-pyrimidin-4-yloxy}-4-methyl-benzamide], the inhibition at 1 µM was determined as 98.6%.
